Assay results from patent publication US20170216234A1, “BENZOATES FOR USE IN TREATING DEMENTIA” (priority 2014, published 2017).

Assays:
[1] = test system: AD patients; conditions: some clinical studies; cited from earlier work
[2] = test system: neuron death; conditions: cited from earlier work
[3] = test system: healthy humans; conditions: cited from earlier work
[4] = both in vitro and in vivo studies; cited from earlier work
[5] = test system: MCI and mild AD; conditions: cited from earlier work
[6] = test system: MCI; conditions: treatment of MCI; cited from earlier work
[7] = test system: patients with aMCI or mild AD; assay: Additional cognition composite (speed of processing, working memory, verbal learning and memory) in 24-week trial
[8] = test system: patients with aMCI or mild AD; assay: Side effects, Udvalg for Kliniske Undersogelser Side-effects Rating Scale, in 24-week trial; assay type: in vivo, human
Protocol: Systemic side effects of treatments were evaluated by means of physical and neurological examinations and laboratory tests including CBC and biochemistry and reviewed by applying the Udvalg for Kliniske Undersogelser Side-effects Rating Scale at the baseline and weeks 8, 16, and 24.

[9] = test system: patients with schizophrenia; conditions: 1000 mg/day, cited from earlier work
[10] = test system: patients with aMCI or mild AD; assay: ADAS-cog in 24-week randomized double-blind placebo-controlled trial; conditions: for ADAS-cog score, mean difference from baseline: all subjects
[11] = test system: NMDAR models; conditions: preclinical studies; cited from earlier work
[12] = Brain mass by magnetic resonance imaging study; assay type: in vivo
[13] = test system: glial cells; conditions: preclinical studies; cited from earlier work
[14] = test system: patients with aMCI or mild AD; assay: CIBIC-plus in 24-week trial

N[C@@H]1CONC1=O [D-cycloserine]
Score on the cognitive subscale of the Alzheimer's Disease Assessment Scale (ADAS-cog) [1]: improve their score

N[C@H](CO)C(=O)O [D-serine]
Extent of neuron death [2]: significantly decreases

CNC1(c2ccccc2Cl)CCCCC1=O (centres unmarked) [Ketamine]
Spatial learning and verbal information ability [3]: impaired

C[C@]12N[C@H](Cc3ccccc31)c1ccccc12 [MK-801]
Apoptosis and neurodegeneration [4]: induce apoptosis and neurodegeneration

CC12CC3CC(C)(C1)CC(N)(C3)C2 [Memantine]
Efficacy in treating MCI (British Association for Psychopharmacology consensus statement) ([5]; MCI): neither AChEIs nor memantine is effective | Efficacy at the early phase, including MCI and mild AD ([5]; human, in vivo): limited efficacy

Nc1nc2ncc(CNc3ccc(C(=O)N[C@@H](CCC(=O)O)C(=O)O)cc3)nc2c(=O)[nH]1 [folic acid]
Cognitive enhancing effect [6]: failed to show convincing evidence

NC(=O)CN1CCCC1=O [piracetam, reference compound]
Cognitive enhancing effect [6]: failed to show convincing evidence

O=C([O-])c1ccccc1.[Na+] [sodium benzoate]
Additional cognition composite vs placebo, subgroup ([7]; CDR 1 subgroup, p=.041): better efficacy | Additional cognition composite vs placebo, subgroup ([7]; CDR .5 subgroup, p=.063): borderline significance | Additional cognition composite effect size vs placebo ([7]; endpoint): .78 | Additional cognition composite vs placebo ([7]; endpoint, all subjects, p=.007): better than placebo | Tolerability ([8]; 24-week treatment): well-tolerated | Reported side effects on Udvalg for Kliniske Undersogelser Side-effects Rating Scale ([8]; all visits): no reported side effect | Side effects in earlier schizophrenia study ([9]; chronic schizophrenia): without obvious side effects | Neurocognitive function ([9]; patients with schizophrenia): beneficial | ADAS-cog vs placebo, subgroup ([10]; CDR 1 subgroup, weeks 16 and 24 and endpoint (p=0151, p=.0387, p=.0092)): greater improvement than placebo therapy | ADAS-cog vs placebo, subgroup ([10]; CDR .5 subgroup, throughout the study (p>.05)): not superior to the placebo therapy | ADAS-cog effect size (Cohen's d) vs placebo ([10]; at the end of the study): .86 | ADAS-cog score, mean difference from baseline ([10]; endpoint, p=.0031 vs placebo): 5.9 | ADAS-cog score, mean difference from baseline ([10]; week 8, 250-750 mg/day, p=.3730 vs placebo): 3.8 | ADAS-cog score, mean difference from baseline ([10]; week 16, p=.0021 vs placebo): 5.4 | ADAS-cog score, mean difference from baseline ([10]; week 24, p=.0116 vs placebo): 5.9 | Effect in NMDAR models such as pain relief [11]: effective | Brain mass [12]: can increase the brain mass | Cell death in glial cells [13]: partially prevented cell death | CIBIC-plus vs placebo, subgroup ([14]; CDR 1 subgroup, week 24 and endpoint (p=.040, p=.018)): greater improvement than placebo therapy | CIBIC-plus score, subgroup ([14]; aMCI (CDR .5) subgroup): did no improve | CIBIC-plus effect size vs placebo ([14]; at endpoint): .73 | CIBIC-plus score vs placebo ([14]; week 16 (p=.015), week 24 (p=.016), endpoint (p=.012), all subjects): greater improvement

omega-3 fatty acid
Cognitive enhancing effect [6]: failed to show convincing evidence

vitamin E
Cognitive enhancing effect [6]: failed to show convincing evidence
